“Also recorded” adds a separate entry of the source.

A short description of the assay: Unspecified test of effectiveness of AII fragments. Conditions: test not specified.

As for His-Pro-Phe (HPF) [AII(6-8)], the “effectiveness (tested, effective or not)” value was “not to be effective”.

On to “Tyr-Ile-His-Pro-Phe (YIHPF; printed: Tyr-Ile-His-Pro-Phe) [AII(4-8)]”, for which the “effectiveness (tested, effective or not)” value is reported as “not to be effective; also recorded: ineffective in repeated tests”.

The record behind these values is US7745411B2, “Methods for promoting erythropoiesis” (University of Southern California, priority 1998, dated 2010).
